The values that follow come from ChEMBL document CHEMBL1201862, “PubChem BioAssay data set” (2004).

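Each compound was tested at five concentrations against cells in 96-well plates for 48 hours. GI50 is the concentration that inhibits growth by half.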 The source made the active and inactive calls. Cut-off read from the data, not from the text of the source: active = GI50 up to about 1.1 µM and inactive = higher.

Among the test systems are RXF 393; ACHN; NCI-H226; HT-29; MCF7; 786-0; OVCAR-3; HCT-116; NCI-H23; SF-539; HOP-62; TK-10; LOX IMVI; PC-3; SK-MEL-2; IGROV-1; RPMI-8226; NCI-H460; A549; COLO 205.
Holding throughout (test): inhibition of tumour cell growth, NCI panel, 48 h

With `CC1=NN(c2cccc(Cl)c2)C2(C1=Cc1ccccc1)C(Cl)C(=O)N2c1nc2ccccc2s1` (stereo not given), the GI50 in the assay with RXF 393 was 14 µM (inactive); in the assay on ACHN it was 16.7 µM (inactive); with NCI-H226 it was 23.8 µM (inactive); with HT-29 it was 19.8 µM (inactive); with MCF7 it was 22.2 µM (inactive); with 786-0, 17.5 µM (inactive). The GI50 was 16.3 µM (inactive) in the assay on OVCAR-3; 16.7 µM (inactive) in the assay on HCT-116; 14.5 µM (inactive) with NCI-H23; 33.2 µM (inactive) in the assay on SF-539; 20.3 µM (inactive) with HOP-62; 37.8 µM (inactive) in the assay with TK-10. In addition, the GI50 in the assay with LOX IMVI is 23.7 µM (inactive); in the assay on PC-3, 16.8 µM (inactive); in the assay on SK-MEL-2, 17 µM (inactive); with IGROV-1, 15.1 µM (inactive); in the assay with RPMI-8226, 21.9 µM (inactive); in the assay on NCI-H460, 15.2 µM (inactive).

Take `Cc1n[nH]c(=O)n1/N=C/c1cccs1`: the GI50 in the assay on RXF 393, in the assay on ACHN, in the assay with NCI-H226, with HT-29, in the assay with MCF7 and in the assay with 786-0 was > 100 µM (inactive) each time. Also, the GI50 with OVCAR-3, in the assay on HCT-116, with NCI-H23, in the assay on A549, in the assay on SF-539 and in the assay with HOP-62 was > 100 µM (inactive) each time. The GI50 in the assay on LOX IMVI, with COLO 205, with PC-3, in the assay with SK-MEL-2, in the assay with RPMI-8226 and in the assay on NCI-H460 was > 100 µM (inactive) throughout.

As for `Clc1cc2nc(C3CCCO3)[nH]c2cc1Cl` (stereo not given), the GI50 in the assay with RXF 393 is 66.5 µM (inactive); in the assay with ACHN, > 100 µM (inactive); in the assay on NCI-H226, > 100 µM (inactive); in the assay on HT-29, 33.7 µM (inactive); in the assay with MCF7, 29.2 µM (inactive); in the assay with 786-0 it was > 100 µM (inactive). The GI50 with OVCAR-3 was 32.5 µM (inactive); in the assay with HCT-116, 39.2 µM (inactive); in the assay with NCI-H23, 34.4 µM (inactive); with A549, 54.6 µM (inactive); in the assay on SF-539, > 100 µM (inactive); with HOP-62, > 100 µM (inactive). The GI50 in the assay on TK-10 is > 100 µM (inactive); in the assay on LOX IMVI it was 35.4 µM (inactive); in the assay with COLO 205 it was 37.1 µM (inactive); in the assay on PC-3, 42.7 µM (inactive); in the assay with SK-MEL-2, > 100 µM (inactive); with IGROV-1, 61.9 µM (inactive). Besides, in the assay with RPMI-8226, the GI50 is 72.8 µM (inactive).

For `COC(=O)C1=C(C)NC2=C(C(=O)c3ccccc32)C1c1cn(-c2ccccc2)nc1-c1ccccc1` (stereo not given), the GI50 is > 44.8 µM (inactive) in the assay with RXF 393; 17.2 µM (inactive) in the assay on ACHN; 74.1 µM (inactive) with NCI-H226; 26.8 µM (inactive) with MCF7; > 87.1 µM (inactive) in the assay with 786-0; > 48.1 µM (inactive) in the assay on OVCAR-3. Further, the GI50 is 12.1 µM (inactive) with HCT-116; 20.7 µM (inactive) with NCI-H23; 12 µM (inactive) in the assay with A549; 21.2 µM (inactive) in the assay with SF-539; > 100 µM (inactive) in the assay on HOP-62; > 100 µM (inactive) with TK-10. Also, the GI50 with LOX IMVI was 37.4 µM (inactive); with COLO 205, > 100 µM (inactive); in the assay on PC-3, 4.36 µM (inactive); with SK-MEL-2, > 59.3 µM (inactive); in the assay with IGROV-1, 6.24 µM (inactive); in the assay on RPMI-8226 it was 2.67 µM (inactive).

`CN(C)C(=O)C(F)(F)C(c1ccccc1Br)C1C(=O)N(C)C(=O)N(C)C1=O` (stereo not given): the GI50 with RXF 393, in the assay with ACHN, in the assay with NCI-H226, with MCF7, with 786-0 and in the assay on OVCAR-3 was > 100 µM (inactive) throughout. Also, the GI50 in the assay with HCT-116, in the assay on NCI-H23, in the assay with A549, in the assay on HOP-62, in the assay on TK-10 and with LOX IMVI was > 100 µM (inactive) throughout. Further, the GI50 with COLO 205, with PC-3, in the assay with SK-MEL-2, with RPMI-8226 and in the assay on NCI-H460 was > 100 µM (inactive) each time.

For the molecule `COc1nc(C)nc2sc3c(c12)CCCC3`, the GI50 in the assay with RXF 393, with ACHN, in the assay on NCI-H226, in the assay with HT-29, with MCF7 and in the assay with 786-0 was > 100 µM (inactive) each time. The GI50 with OVCAR-3, in the assay with HCT-116, with NCI-H23, in the assay with HOP-62, in the assay with TK-10 and in the assay on LOX IMVI was > 100 µM (inactive) throughout. In addition, the GI50 in the assay on COLO 205 was > 100 µM (inactive); in the assay with PC-3, > 100 µM (inactive); in the assay on SK-MEL-2, > 100 µM (inactive); with IGROV-1, > 100 µM (inactive); with RPMI-8226, 55.3 µM (inactive); in the assay on NCI-H460, > 100 µM (inactive).

With `CCCCCc1cc2cc3c(c(O)c2c(=O)[nH]1)C1(CC3)C(=O)c2c(O)c3c(c(O)c2C1=O)C(=O)C(OC)=CC3=O` (stereo not given), the GI50 was 0.877 µM (active) with RXF 393; 0.522 µM (active) in the assay on ACHN; 1.45 µM (inactive) with NCI-H226; 0.718 µM (active) in the assay on HT-29; 0.311 µM (active) with MCF7; 0.7 µM (active) in the assay with 786-0. The GI50 with OVCAR-3 is 0.44 µM (active); with HCT-116, 0.433 µM (active); in the assay with NCI-H23, 0.701 µM (active); with A549, 0.845 µM (active); with HOP-62, 3.61 µM (inactive); in the assay on LOX IMVI, 0.662 µM (active). Further, the GI50 is 0.206 µM (active) in the assay with COLO 205; 0.568 µM (active) in the assay on PC-3; 0.867 µM (active) in the assay on SK-MEL-2; 1.28 µM (inactive) in the assay on IGROV-1; 0.336 µM (active) in the assay with RPMI-8226; 0.863 µM (active) with NCI-H460.

With `O=c1cnc2cc3ccccc3cc2[nH]1`, the GI50 in the assay on RXF 393, in the assay with ACHN, in the assay on NCI-H226, with HT-29, in the assay on MCF7 and in the assay with 786-0 was > 100 µM (inactive) each time. Moreover, the GI50 in the assay on OVCAR-3, with HCT-116, with NCI-H23, in the assay with A549, with HOP-62 and in the assay with TK-10 was > 100 µM (inactive) throughout. Besides, the GI50 in the assay on LOX IMVI, in the assay on COLO 205, with PC-3, with SK-MEL-2, with IGROV-1 and in the assay on RPMI-8226 was > 100 µM (inactive) throughout. In addition, in the assay on NCI-H460, the GI50 is > 100 µM (inactive).

Consider `CC(=O)/N=C1/N(/C=C2\C(=O)Oc3ccccc3C2=O)C(=O)/C(=C/c2cccc(Cl)c2Cl)N1C`, for which the GI50 in the assay on RXF 393 was 31.6 µM (inactive); in the assay on ACHN, 13.7 µM (inactive); with NCI-H226, 24 µM (inactive); with HT-29, 19.1 µM (inactive); in the assay on MCF7 it was 25.7 µM (inactive); with 786-0 it was 34.3 µM (inactive). The GI50 in the assay with OVCAR-3 was 1.39 µM (inactive); in the assay with HCT-116, 29.4 µM (inactive); with NCI-H23 it was 23.9 µM (inactive); in the assay with A549, 28.2 µM (inactive); in the assay on SF-539, 4.42 µM (inactive); in the assay on HOP-62 it was 19.7 µM (inactive). The GI50 is 24.6 µM (inactive) in the assay on LOX IMVI; 31.3 µM (inactive) in the assay on COLO 205; 35.3 µM (inactive) in the assay with PC-3; 19.8 µM (inactive) in the assay with SK-MEL-2; 21.4 µM (inactive) in the assay with IGROV-1; 12.4 µM (inactive) with RPMI-8226.

On to `Cn1ccnc1CCc1ccc(F)cc1F`, for which the GI50 in the assay with RXF 393, with ACHN, with NCI-H226, with HT-29, with MCF7 and with 786-0 was > 100 µM (inactive) each time. The GI50 with OVCAR-3, with NCI-H23, with A549, in the assay on SF-539, with HOP-62 and in the assay on TK-10 was > 100 µM (inactive) each time. In addition, the GI50 in the assay on LOX IMVI, with COLO 205, in the assay with PC-3, in the assay on SK-MEL-2, in the assay on IGROV-1 and in the assay on RPMI-8226 was > 100 µM (inactive) in each case. Moreover, in the assay on NCI-H460, the GI50 was > 100 µM (inactive).

Regarding `Cc1nn(-c2ccccc2)c2nc(S)cnc12`, the GI50 in the assay with RXF 393, with NCI-H226, in the assay on HT-29, in the assay with MCF7, in the assay on 786-0 and with OVCAR-3 was > 100 µM (inactive) throughout. The GI50 in the assay with HCT-116, in the assay with NCI-H23, with A549, in the assay on SF-539, in the assay with HOP-62 and in the assay with TK-10 was > 100 µM (inactive) each time. Further, the GI50 in the assay with LOX IMVI is > 100 µM (inactive); in the assay with PC-3 it was > 100 µM (inactive); in the assay with SK-MEL-2, > 100 µM (inactive); in the assay on IGROV-1, > 100 µM (inactive); in the assay with RPMI-8226 it was 89.5 µM (inactive); in the assay on NCI-H460, > 100 µM (inactive).
